“Also recorded” adds a separate entry of the source. Read-outs that look alike come from different tables or passages of the source.
How the values were obtained:
[1] = system: Neuro2a cells transfected with the TDP-43 gene; assay: Inhibition of cell death in neuron-differentiated Neuro2a cells transfected with the TDP-43 gene (Example 1); type: cell-based, Mouse; conditions: evaluated 7 days after transfection, Figures 3 and 4
Protocol: Mouse neuroblastoma (Neuro2a) cells were seeded on a dish. The Neuro2a cells were cultured in a culture medium containing DMEM+10% FBS at 37°C in the presence of 5% CO2. On the first day after seeding, differentiation into neurons was initiated. Differentiation into neurons was performed in a culture medium containing DMEM+2% FBS+20 µmol/L retinoic acid. On the fourth day after seeding, cells were transfected with synthesized TDP-43 mRNA by a lipofection method. Cells were sampled at 6 hours, 9 hours, 12 hours, 15 hours, 18 hours, and 21 hours after transfection. […] For sampling, cells were lysed in an RIPA buffer and centrifuged at 22,000xg for 30 minutes at 4°C, the supernatant was used as the soluble fraction, the precipitate was used as the insoluble fraction, and equal volumes of a 2×SDS sample buffer were added to the respective fractions and heated at 95°C for 5 minutes to prepare electrophoresis samples. The electrophoresis samples were subjected to electrophoresis using a polyacrylamide gel, TDP-43 was then transferred to a PVDF membrane. TDP-43 was detected through chemiluminescence using anti-TDP-43 antibodies as primary antibodies and HRP-conjugated anti-rabbit antibodies as secondary antibodies. […] The insoluble fractions of TDP-43 indicate the aggregation of TDP-43. […]
The proportion of dead cells was evaluated 7 days after the cells were transfected with the TDP-43 gene.

TDP-43 [2] = assay: Soluble and insoluble fractions of TDP-43 in TDP-43-transfected Neuro2a cells, Western blot (Example 2); type: cell-based, Mouse; conditions: 10 µmol/L added 6 hours after transfection, cultured for 12 hours; for soluble fractions versus insoluble fractions of TDP-43: Figure 5; for proportion of insoluble fractions based on a total number of soluble fractions and insoluble fractions of TDP-43: Figure 6
Protocol: Mouse neuroblastoma (Neuro2a) cells were seeded on a dish. The Neuro2a cells were cultured in a culture medium containing DMEM+10% FBS at 37°C in the presence of 5% CO2. On the first day after seeding, differentiation into neurons was initiated. Differentiation into neurons was performed in a culture medium containing DMEM+2% FBS+20 µmol/L retinoic acid. On the fourth day after seeding, cells were transfected with synthesized TDP-43 mRNA by a lipofection method. Cells were sampled at 6 hours, 9 hours, 12 hours, 15 hours, 18 hours, and 21 hours after transfection. […] For sampling, cells were lysed in an RIPA buffer and centrifuged at 22,000xg for 30 minutes at 4°C, the supernatant was used as the soluble fraction, the precipitate was used as the insoluble fraction, and equal volumes of a 2×SDS sample buffer were added to the respective fractions and heated at 95°C for 5 minutes to prepare electrophoresis samples. The electrophoresis samples were subjected to electrophoresis using a polyacrylamide gel, TDP-43 was then transferred to a PVDF membrane. TDP-43 was detected through chemiluminescence using anti-TDP-43 antibodies as primary antibodies and HRP-conjugated anti-rabbit antibodies as secondary antibodies. […] The insoluble fractions of TDP-43 indicate the aggregation of TDP-43.
Neuro2a cells were seeded on a dish. On the first day after seeding, differentiation into neurons was initiated. On the fourth day after seeding, cells were transfected with the TDP-43 gene.

TDP-43 [3] = assay: Soluble and insoluble fractions of TDP-43 in motor neurons derived from iPS cells of ALS patients, Western blot (Example 3); type: cell-based, human; conditions: 10 µmol/L, cultured for 20 days; for bands for insoluble fractions of TDP-43: Figure 7; for average proportion of insoluble fractions of TDP-43: three experiments, Figure 8
TDP-43 [4] = assay: Soluble and insoluble fractions of TDP-43 in motor neurons derived from iPS cells of healthy subjects, Western blot (Example 3); type: cell-based, human; conditions: 10 µmol/L, cultured for 20 days, Figure 7
Protocol: 100 µL of an EHS-gel basement membrane matrix (commercially available from FUJIFILM Wako Pure Chemical Corporation) was added to 12.5 mL of DMEM (Dulbecco's Modified Eagle Medium, commercially available from FUJIFILM Wako Pure Chemical Corporation) and mixed, and the mixture was added to a 24-well plate at 600 µL per well. The plate was left at room temperature for 2 hours, and the solution was then removed from the wells. Next, 600 µL of DMEM was added to each well, and the plate was left at room temperature for 2 hours.
Motor neurons derived from iPS cells of healthy subjects and motor neurons derived from iPS cells of ALS patients were obtained from iXCells Biotechnologies. The motor neurons were quickly thawed in a thermostatic oven at 37°C and suspended in a motor neuron maintenance culture medium (iXCells Biotechnologies). […]
The soluble protein fractions and the insoluble protein fractions were subjected to SDS-PAGE, and the proteins were transferred to a PVDF membrane. […] Next, the PVDF membrane was washed three times with a buffer solution, 1 mL of a luminescence reagent (ImmunoStar LD, commercially available from FUJIFILM Wako Pure Chemical Corporation) was then used to induce luminescence from the labeled secondary antibodies, and the PVDF membrane was imaged.

[5] = cited from earlier work
[6] = cited from earlier work; remark: listed apart in the source
[7] = Reported human pharmacokinetics of D-cycloserine (literature); type: in vivo, humans; conditions: estimated; 15 mg orally administered twice daily

Structure (SMILES)	effect of inhibiting cell death [1]	soluble fractions versus insoluble fractions of TDP-43 (TDP-43 [2])	proportion of insoluble fractions based on a total number of soluble fractions and insoluble fractions of TDP-43 (TDP-43 [2])	bands for insoluble fractions of TDP-43 (TDP-43 [3])	average proportion of insoluble fractions of TDP-43 (TDP-43 [3])	bands for insoluble fractions of TDP-43 (TDP-43 [4])	Cmax ([5]; 15 mg orally administered to humans, read-out: maximum blood concentration (Cmax)) [µM]	half-life ([5]; in vivo)	side effects ([6]; 150 mg administered to humans)	side effects ([6]; 250 mg administered to humans to treat tuberculosis)	trough value [7] [nmol/L]
N[C@H]1CONC1=O [L-cycloserine, (4S)-4-amino-1,2-oxazolidin-3-one]	exhibited an effect of inhibiting cell death in a concentration-dependent manner	the number of soluble fractions of TDP-43 was larger than the number of insoluble fractions of TDP-43	less than half	–	–	–	–	–	–	–	–
CCCN(CCC)CCc1cccc2c1CC(=O)N2 [ropinirole]	–	–	–	bands for insoluble fractions were unclear	about 19.3%	bands for insoluble fractions were unclear	–	–	–	–	–
N[C@@H]1CONC1=O [D-cycloserine, (4R)-4-Amino-1,2-oxazolidin-3-one]	cell death was inhibited; also recorded: exhibited an effect of inhibiting cell death in a concentration-dependent manner	the number of soluble fractions of TDP-43 was larger than the number of insoluble fractions of TDP-43	less than half	bands for insoluble fractions were unclear	about 17.4%	bands for insoluble fractions were unclear	~5.6	about 10 hours	headaches	serious side effects such as epileptiform seizure and mental confusion	> 128

— patent publication EP4778519A1, “THERAPEUTIC OR PROPHYLACTIC AGENT FOR FRONTOTEMPORAL LOBAR DEGENERATION ACCOMPANIED BY ACCUMULATION OF TDP-43 (FTLD-TDP)” (Socium Inc., priority 2023, dated 2025)
